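These data come from cells grown in 96-well plates and exposed to compound for 48 hours at five concentrations. Abbreviation: GI50, concentration required for 50% inhibition of growth.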 Active and inactive are the calls of the source. No stated cut-off is given here; in the data, active = GI50 up to about 1.1 µM and inactive = higher. Numbered stars: 1 amine (or outer) side, 2 acyl side, 3 side chain; on linkers, the order of the positions; unused ones are H or OH. Bridge positions count the residues as written; N and C are the ends. Square brackets hold non-standard residues; d marks the D form. Peptide text beside a SMILES is read from it. I, II: the chains in the order shown. Actinocin(9to1) = Cc1c2oc3c(C)ccc(C(=O)[*:1])c3nc-2c(C(=O)[*:2])c(N)c1=O; X48 = O=C1CC(C(=O)[*:2])N([*:1])C1; NMeV = CN[CH](C(=O)O)C(C)C; Sar = CNCC(=O)O
Legend:
Experiment in all cases: DTP human tumour cell line panel, 48 h
[1] = system: 786-0
[2] = system: BT-549
[3] = system: COLO 205
[4] = system: EKVX
[5] = system: K562
[6] = system: M14
[7] = system: MDA-MB-435
[8] = system: OVCAR-5
[9] = system: OVCAR-8
[10] = system: SK-MEL-28
[11] = system: SNB-19
[12] = system: UACC-257
[13] = system: UACC-62
[14] = system: Hs-578T
[15] = system: MDA-N
[16] = system: NCI-H226

| Compound | GI50 [1] | GI50 [2] | GI50 [3] | GI50 [4] | GI50 [5] | GI50 [6] | GI50 [7] | GI50 [8] | GI50 [9] | GI50 [10] | GI50 [11] | GI50 [12] | GI50 [13] | GI50 [14] | GI50 [15] | GI50 [16] |
| --- | --- | --- | --- | --- | --- | --- | --- | --- | --- | --- | --- | --- | --- | --- | --- | --- |
| O=C(NCCn1ccnn1)Nc1ccccc1 | > 100 µM (inactive) | > 100 µM (inactive) | > 100 µM (inactive) | > 100 µM (inactive) | > 100 µM (inactive) | > 100 µM (inactive) | > 100 µM (inactive) | > 100 µM (inactive) | > 100 µM (inactive) | > 100 µM (inactive) | > 100 µM (inactive) | > 100 µM (inactive) | – | – | – | – |
| COC1=CC(=O)C2C(C1=O)C(c1ccccc1)[C@H]2C (stereo partly drawn) | > 100 µM (inactive) | – | > 100 µM (inactive) | > 100 µM (inactive) | 34.4 µM (inactive) | > 100 µM (inactive) | – | > 100 µM (inactive) | 45.6 µM (inactive) | > 100 µM (inactive) | > 100 µM (inactive) | – | > 100 µM (inactive) | – | – | – |
| COc1ccc(/N=N/c2ccc3oc(=O)c(C(=O)Nc4ccc(Cl)cc4)cc3c2)cc1 | > 10 µM (inactive) | – | > 10 µM (inactive) | 6.15 µM (inactive) | – | > 10 µM (inactive) | > 10 µM (inactive) | > 10 µM (inactive) | > 10 µM (inactive) | > 10 µM (inactive) | – | > 10 µM (inactive) | – | > 10 µM (inactive) | > 10 µM (inactive) | > 10 µM (inactive) |
| Cc1nc2c(O)cc3c4c([nH]c3c2nc1C)C(=O)CCC4 | 5.85 µM (inactive) | – | 2.26 µM (inactive) | 6.37 µM (inactive) | 5.06 µM (inactive) | 3.35 µM (inactive) | 0.541 µM (active) | 4.24 µM (inactive) | 2.65 µM (inactive) | 2.8 µM (inactive) | 9.42 µM (inactive) | 95.1 µM (inactive) | 3.66 µM (inactive) | 2.62 µM (inactive) | 0.869 µM (active) | 25.1 µM (inactive) |
| COC(=O)[C@@]12CC3CN(Cc4c1[nH]c1ccccc41)C2CC3=O | > 100 µM (inactive) | > 100 µM (inactive) | > 100 µM (inactive) | > 100 µM (inactive) | > 100 µM (inactive) | > 100 µM (inactive) | > 100 µM (inactive) | > 100 µM (inactive) | > 100 µM (inactive) | > 100 µM (inactive) | > 100 µM (inactive) | > 100 µM (inactive) | > 100 µM (inactive) | – | > 100 µM (inactive) | > 100 µM (inactive) |
| CCOc1ccc(-n2nnc3c(N)nc(N)nc32)cc1 | > 100 µM (inactive) | > 100 µM (inactive) | > 100 µM (inactive) | > 100 µM (inactive) | > 100 µM (inactive) | > 100 µM (inactive) | > 100 µM (inactive) | > 100 µM (inactive) | > 100 µM (inactive) | > 100 µM (inactive) | 29.1 µM (inactive) | > 100 µM (inactive) | > 100 µM (inactive) | – | > 100 µM (inactive) | > 100 µM (inactive) |
| O=C1C=C(Nc2ccc(Br)cc2)c2ccccc2/C1=N/O | 9.73 µM (inactive) | – | 4.78 µM (inactive) | 35.5 µM (inactive) | 8.71 µM (inactive) | 1.63 µM (inactive) | 1.83 µM (inactive) | 5.18 µM (inactive) | 12.1 µM (inactive) | 2 µM (inactive) | 2.5 µM (inactive) | 1.58 µM (inactive) | 1.73 µM (inactive) | 3.2 µM (inactive) | 1.89 µM (inactive) | 2.32 µM (inactive) |
| Cc1ccccc1[P+](C)(c1ccccc1C)c1ccccc1C | 24.8 µM (inactive) | 7.48 µM (inactive) | 10.6 µM (inactive) | 5.07 µM (inactive) | – | 7.46 µM (inactive) | 4.54 µM (inactive) | 13.6 µM (inactive) | 15 µM (inactive) | 11.6 µM (inactive) | 8.69 µM (inactive) | 2.58 µM (inactive) | 5.79 µM (inactive) | 17.8 µM (inactive) | – | 14.6 µM (inactive) |
| Nc1nc(Cl)cc(OCC2(CO)CCCC2)n1 | > 100 µM (inactive) | – | – | 91.4 µM (inactive) | > 100 µM (inactive) | – | > 100 µM (inactive) | > 100 µM (inactive) | > 100 µM (inactive) | > 100 µM (inactive) | > 100 µM (inactive) | > 100 µM (inactive) | – | > 100 µM (inactive) | > 100 µM (inactive) | > 100 µM (inactive) |
| CC(C)(C)OC(=O)Nc1cc(-c2ccccc2)co1 | > 100 µM (inactive) | 79.8 µM (inactive) | > 100 µM (inactive) | > 100 µM (inactive) | 67 µM (inactive) | > 100 µM (inactive) | 94 µM (inactive) | > 100 µM (inactive) | > 100 µM (inactive) | > 100 µM (inactive) | > 100 µM (inactive) | > 100 µM (inactive) | > 100 µM (inactive) | – | 86.3 µM (inactive) | > 100 µM (inactive) |
| O=c1oc(-c2ccccc2)c(-c2ccccc2)n1-c1ccc(Br)cc1 | 32.4 µM (inactive) | 25.5 µM (inactive) | > 100 µM (inactive) | 54.1 µM (inactive) | – | > 100 µM (inactive) | > 100 µM (inactive) | > 100 µM (inactive) | 29.2 µM (inactive) | > 100 µM (inactive) | 31.8 µM (inactive) | 86.9 µM (inactive) | 73.8 µM (inactive) | 32.3 µM (inactive) | – | > 100 µM (inactive) |
| O=C1NCN(c2ccccc2)C12CCN(CCc1ccc3[nH]c(=S)[nH]c3c1)CC2 | 33.5 µM (inactive) | 30.5 µM (inactive) | 16.3 µM (inactive) | 88.5 µM (inactive) | – | 19.6 µM (inactive) | 17.3 µM (inactive) | > 100 µM (inactive) | 51.9 µM (inactive) | 4.12 µM (inactive) | 43.5 µM (inactive) | 0.075 µM (active) | 64.9 µM (inactive) | > 100 µM (inactive) | – | – |
| COc1cnc2oc3ccc(O)cc3c2c1-c1ccccc1 | 21.9 µM (inactive) | > 100 µM (inactive) | 30.6 µM (inactive) | > 100 µM (inactive) | 22.1 µM (inactive) | 18.7 µM (inactive) | > 100 µM (inactive) | 24.1 µM (inactive) | 55.3 µM (inactive) | > 100 µM (inactive) | – | 88.5 µM (inactive) | – | > 100 µM (inactive) | – | – |
| CC(=O)C1=CN=C2C(=O)N(c3ccccc3)N(C)C12C (stereo not drawn) | > 100 µM (inactive) | > 100 µM (inactive) | > 100 µM (inactive) | > 100 µM (inactive) | > 100 µM (inactive) | > 100 µM (inactive) | > 100 µM (inactive) | > 100 µM (inactive) | > 100 µM (inactive) | – | > 100 µM (inactive) | > 100 µM (inactive) | > 100 µM (inactive) | – | > 100 µM (inactive) | > 100 µM (inactive) |
| CC(=O)c1ccc(-c2oc(-c3ccccc3)cc2-c2ccc3c(c2)OCO3)s1 | > 100 µM (inactive) | – | > 100 µM (inactive) | > 100 µM (inactive) | > 100 µM (inactive) | 65.3 µM (inactive) | 3.07 µM (inactive) | > 100 µM (inactive) | > 100 µM (inactive) | – | – | > 100 µM (inactive) | > 100 µM (inactive) | > 100 µM (inactive) | – | > 100 µM (inactive) |
| O=C(c1cc(Cl)ccc1Cl)N1CCN(C(=O)c2cc(Cl)ccc2Cl)CC1 | 91.2 µM (inactive) | > 100 µM (inactive) | – | > 100 µM (inactive) | > 100 µM (inactive) | > 100 µM (inactive) | – | > 100 µM (inactive) | 30.2 µM (inactive) | > 100 µM (inactive) | > 100 µM (inactive) | > 100 µM (inactive) | – | > 100 µM (inactive) | > 100 µM (inactive) | > 100 µM (inactive) |
| Cc1c2oc3c(C)ccc(C(=O)NC4C(=O)NC(C(C)C)C(=O)N5CC(=O)CC5C(=O)N(C)CC(=O)N(C)C(C(C)C)C(=O)OC4C)c3nc-2c(C(=O)NC2C(=O)NC(C(C)C)C(=O)N3CC(=O)CC3C(=O)N(C)CC(=O)N(C)C(C(C)C)C(=O)OC2C)c(N)c1=O (stereo not drawn) (I: TV[X48][Sar][NMeV] / II: TV[X48][Sar][NMeV]; ester I:1-I:C, II:1-II:C; linker I:N-II:N via Actinocin(9to1); configuration not given here) | > 1 µM (active) | – | > 1 µM (active) | > 1 µM (active) | > 1 µM (active) | > 1 µM (active) | > 1 µM (active) | > 1 µM (active) | > 1 µM (active) | > 1 µM (active) | > 1 µM (active) | > 1 µM (active) | – | – | > 1 µM (active) | > 1 µM (active) |
| COc1ccc(S(=O)(=O)O)cc1-n1nc(C(=O)Nc2ccccc2)n[n+]1-c1cc(S(=O)(=O)[O-])ccc1OC | > 100 µM (inactive) | – | > 100 µM (inactive) | > 100 µM (inactive) | > 100 µM (inactive) | > 100 µM (inactive) | > 100 µM (inactive) | > 100 µM (inactive) | – | > 100 µM (inactive) | > 100 µM (inactive) | – | > 100 µM (inactive) | > 100 µM (inactive) | > 100 µM (inactive) | > 100 µM (inactive) |
| OCCc1ccsc1-c1sc(-c2cc(CCO)c(-c3sccc3CCO)s2)cc1CCO | 12 µM (inactive) | 6.11 µM (inactive) | 11.6 µM (inactive) | 17.1 µM (inactive) | 7.94 µM (inactive) | 11.3 µM (inactive) | 17.7 µM (inactive) | 17.1 µM (inactive) | 15.7 µM (inactive) | 18.5 µM (inactive) | 13.6 µM (inactive) | 17 µM (inactive) | 11.6 µM (inactive) | – | 21.6 µM (inactive) | – |

Source: ChEMBL document CHEMBL1201862, “PubChem BioAssay data set” (2004)
